Assay results published in ChEMBL document CHEMBL1136678, “Novel indole-based inhibitors of IMPDH: introduction of hydrogen bond acceptors at indole C-3” (Bioorg Med Chem Lett, 2003).

Columns and labels:
[1] = molecular target: Inosine-5'-monophosphate dehydrogenase 2 (Homo sapiens, UniProt P12268); assay: Inhibition of 5'-inosine monophosphate dehydrogenase type II (IMPDH II)
CCRF-CEM = assay: Inhibition of CEM T-cell proliferation; assay type: functional, cell-based; conditions: Homo sapiens
[2] = molecular target: Inosine-5'-monophosphate dehydrogenase 1 (Homo sapiens, UniProt P20839); assay: Inhibition of 5'-inosine monophosphate dehydrogenase type I (IMPDH I)
Chain of Inosine-5'-monophosphate dehydrogenase 1 (P20839 whole entry): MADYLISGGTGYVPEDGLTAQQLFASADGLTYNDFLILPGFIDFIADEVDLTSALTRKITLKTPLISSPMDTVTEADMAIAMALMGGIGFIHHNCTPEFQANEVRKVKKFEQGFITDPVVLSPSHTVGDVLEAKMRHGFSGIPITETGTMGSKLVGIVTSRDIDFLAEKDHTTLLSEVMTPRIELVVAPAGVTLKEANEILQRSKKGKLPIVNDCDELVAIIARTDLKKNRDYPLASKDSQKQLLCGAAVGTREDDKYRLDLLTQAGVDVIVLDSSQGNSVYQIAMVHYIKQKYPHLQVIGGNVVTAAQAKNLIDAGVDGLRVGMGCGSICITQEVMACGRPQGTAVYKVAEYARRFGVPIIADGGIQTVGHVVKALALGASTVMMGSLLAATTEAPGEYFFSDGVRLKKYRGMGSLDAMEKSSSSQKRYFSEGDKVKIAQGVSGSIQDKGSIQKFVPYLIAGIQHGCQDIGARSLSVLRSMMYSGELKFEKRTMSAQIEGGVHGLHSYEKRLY

| SMILES | IC50 [1] [nM] | IC50 (CCRF-CEM) [nM] | IC50 [2] [nM] |
| --- | --- | --- | --- |
| COc1cc2[nH]c(-c3csc4ccccc34)c(C#N)c2cc1-c1cnco1 | 64 | – | – |
| COc1cc2[nH]c(-c3csc4ccccc34)cc2cc1-c1cnco1 | 500 | – | – |
| COc1cc2[nH]c(-c3ccccc3)cc2cc1-c1cnco1 | 500 | > 10000 | – |
| COc1cc2[nH]c3c(c2cc1-c1cnco1)CCCC(=O)C3 | 150 | – | – |
| COc1cc2[nH]c(-c3csc4ccccc34)c(C=O)c2cc1-c1cnco1 | 30 | 550 | 160 |
| COc1cc2[nH]c(-c3ccccc3)c(C#N)c2cc1-c1cnco1 | 130 | – | – |
| COc1cc2[nH]c(Cc3ccccc3)cc2cc1-c1cnco1 | 600 | – | – |
| COc1cc2[nH]c(Cc3ccccc3)c(C#N)c2cc1-c1cnco1 | 220 | – | – |
| COc1cc2[nH]c3c(c2cc1-c1cnco1)CC(=O)CC3 | 290 | – | – |
| COc1cc2[nH]c(Cc3ccccc3)c(C=O)c2cc1-c1cnco1 | 360 | – | – |
| CCOC(=O)c1c(-c2ccccc2)[nH]c2cc(OC)c(-c3cnco3)cc12 | > 1000 | – | – |
| COc1cc2[nH]c(-c3ccccc3)c(C=O)c2cc1-c1cnco1 | 230 | – | – |
